Experimental data as given in PubChem BioAssay AID1259407 (Chemical Carcinogenesis Research Information System (CCRIS), 2018).
Entries after “also recorded” stand apart in the source; their conditions may differ. Activity calls are given as the source filed them. How the calls were made is not given here.

Tested on: CCRIS mutagenicity, Ames/micronucleus/aberration tests
Assay: CCRIS mutagenicity studies

How did the mutagenic call (End Point: IN VITRO MICRONUCLEUS, Test System: AHH-1 CELLS, Metabolic Activation: NONE) turn out when `CC(=O)Nc1ccc2c(c1)Cc1ccccc1-2` was run?
The mutagenic call was “active; positive”.

What about the mutagenic call (End Point: IN VITRO MICRONUCLEUS, Test System: MCL-5 CELLS, Metabolic Activation: NONE) of the same compound?
The mutagenic call was “active; positive”.

And the mutagenic call (End Point: IN VITRO MICRONUCLEUS, Test System: V79 CELLS, Metabolic Activation: RAT, LIVER, S-9, AROCLOR 1254)?
The mutagenic call was “active; positive”.

And the mutagenic call (End Point: In vivo micronucleus, Test System: Micronucleated hepatocytes, Species: Rat, Strain/Sex: F344/Male, Route: Oral)?
Its mutagenic call is “active; positive (p<0.01 at highest dose); also recorded: active; positive (p<0.05 at lower dose and p<0.01 at higher dose)”.

What about the mutagenic call (Test System: AMES SALMONELLA TYPHIMURIUM, Strain/Indicator: DJ400, Metabolic Activation: HUMAN, HEPATOMA CELLS, BENZO[A]ANTHRACENE, Method: PREINCUBATION) of the same compound?
The mutagenic call was “active; positive”.

What about the mutagenic call (Test System: AMES SALMONELLA TYPHIMURIUM, Strain/Indicator: DJ400, Metabolic Activation: HUMAN, HEPATOMA CELLS, Method: PREINCUBATION) of the same compound?
Its mutagenic call is “active; positive”.

And the mutagenic call (Test System: AMES SALMONELLA TYPHIMURIUM, Strain/Indicator: DJ400, Metabolic Activation: RAT, LIVER, S-9, AROCLOR 1254, Method: PREINCUBATION)?
The mutagenic call was “active; positive”.

What about the mutagenic call (Test System: AMES SALMONELLA TYPHIMURIUM, Strain/Indicator: DJ400, Metabolic Activation: RAT, LIVER, S-9, Method: PREINCUBATION) of the same compound?
Its mutagenic call is “active; positive”.

And the mutagenic call (Test System: AMES SALMONELLA TYPHIMURIUM, Strain/Indicator: DJ460, Metabolic Activation: HUMAN, HEPATOMA CELLS, BENZO[A]ANTHRACENE, Method: PREINCUBATION)?
The mutagenic call was “active; positive”.

And the mutagenic call (Test System: AMES SALMONELLA TYPHIMURIUM, Strain/Indicator: DJ460, Metabolic Activation: HUMAN, HEPATOMA CELLS, Method: PREINCUBATION)?
Its mutagenic call is “active; positive”.

What about the mutagenic call (Test System: AMES SALMONELLA TYPHIMURIUM, Strain/Indicator: DJ460, Metabolic Activation: RAT, LIVER, S-9, AROCLOR 1254, Method: PREINCUBATION) of the same compound?
The mutagenic call was “active; positive”.

What about the mutagenic call (Test System: AMES SALMONELLA TYPHIMURIUM, Strain/Indicator: DJ460, Metabolic Activation: RAT, LIVER, S-9, Method: PREINCUBATION) of the same compound?
The mutagenic call was “active; positive”.

What about the mutagenic call (Test System: AMES SALMONELLA TYPHIMURIUM, Strain/Indicator: TA97, Metabolic Activation: NONE, Method: STANDARD PLATE) of the same compound?
The mutagenic call was “inactive; negative”.

And the mutagenic call (Test System: AMES SALMONELLA TYPHIMURIUM, Strain/Indicator: TA97, Metabolic Activation: RAT, LIVER, S-9, AROCLOR 1254, Method: STANDARD PLATE)?
Its mutagenic call is “inactive; negative”.

What about the mutagenic call (Test System: AMES SALMONELLA TYPHIMURIUM, Strain/Indicator: TA98, Metabolic Activation: GUINEA PIG, LIVER, HEPATOCYTES) of the same compound?
The mutagenic call was “active; positive”.

And the mutagenic call (Test System: AMES SALMONELLA TYPHIMURIUM, Strain/Indicator: TA98, Metabolic Activation: GUINEA PIG, LIVER, S-9, Method: STANDARD PLATE)?
The mutagenic call was “active; positive”.

What about the mutagenic call (Test System: AMES SALMONELLA TYPHIMURIUM, Strain/Indicator: TA98, Metabolic Activation: HAMSTER, LIVER, HEPATOCYTES) of the same compound?
The mutagenic call was “active; positive”.

What about the mutagenic call (Test System: AMES SALMONELLA TYPHIMURIUM, Strain/Indicator: TA98, Metabolic Activation: HAMSTER, LIVER, S-9, Method: STANDARD PLATE) of the same compound?
The mutagenic call was “active; positive”.

What about the mutagenic call (Test System: AMES SALMONELLA TYPHIMURIUM, Strain/Indicator: TA98, Metabolic Activation: HUMAN, FETAL LIVER, S-9) of the same compound?
Its mutagenic call is “inactive; negative”.

And the mutagenic call (Test System: AMES SALMONELLA TYPHIMURIUM, Strain/Indicator: TA98, Metabolic Activation: HUMAN, HEPATOMA CELLS, BENZO[A]ANTHRACENE, Method: PREINCUBATION)?
The mutagenic call was “active; positive”.

What about the mutagenic call (Test System: AMES SALMONELLA TYPHIMURIUM, Strain/Indicator: TA98, Metabolic Activation: HUMAN, HEPATOMA CELLS, Method: PREINCUBATION) of the same compound?
The mutagenic call was “active; positive”.

What about the mutagenic call (Test System: AMES SALMONELLA TYPHIMURIUM, Strain/Indicator: TA98, Metabolic Activation: HUMAN, RED BLOOD CELL, CYTOSOL, Method: PREINCUBATION) of the same compound?
The mutagenic call was “active; positive”.

And the mutagenic call (Test System: AMES SALMONELLA TYPHIMURIUM, Strain/Indicator: TA98, Metabolic Activation: MOUSE, LIVER, HEPATOCYTES)?
Its mutagenic call is “inactive; negative”.

And the mutagenic call (Test System: AMES SALMONELLA TYPHIMURIUM, Strain/Indicator: TA98, Metabolic Activation: MOUSE, LIVER, S-9, Method: STANDARD PLATE)?
Its mutagenic call is “active; positive”.

And the mutagenic call (Test System: AMES SALMONELLA TYPHIMURIUM, Strain/Indicator: TA98, Metabolic Activation: NONE, Method: SPIRAL ASSAY)?
Its mutagenic call is “inactive; negative”.

What about the mutagenic call (Test System: AMES SALMONELLA TYPHIMURIUM, Strain/Indicator: TA98, Metabolic Activation: NONE, Method: STANDARD PLATE) of the same compound?
The mutagenic call was “inactive; negative”.

And the mutagenic call (Test System: AMES SALMONELLA TYPHIMURIUM, Strain/Indicator: TA98, Metabolic Activation: RABBIT, LIVER, MICROSOMAL FRACTION, Method: STANDARD PLATE)?
The mutagenic call was “active; positive”.

What about the mutagenic call (Test System: AMES SALMONELLA TYPHIMURIUM, Strain/Indicator: TA98, Metabolic Activation: RABBIT, LUNG, MICROSOMAL FRACTION, Method: STANDARD PLATE) of the same compound?
Its mutagenic call is “active; positive”.

What about the mutagenic call (Test System: AMES SALMONELLA TYPHIMURIUM, Strain/Indicator: TA98, Metabolic Activation: RAT, BLADDER, S-9, PCB, Method: FLUCTUATION TEST) of the same compound?
Its mutagenic call is “inactive; negative”.

And the mutagenic call (Test System: AMES SALMONELLA TYPHIMURIUM, Strain/Indicator: TA98, Metabolic Activation: RAT, LIVER, HEPATOCYTES)?
The mutagenic call was “inactive; negative”.

What about the mutagenic call (Test System: AMES SALMONELLA TYPHIMURIUM, Strain/Indicator: TA98, Metabolic Activation: RAT, LIVER, S-9, ACRYLAMIDE, Method: STANDARD PLATE) of the same compound?
Its mutagenic call is “active; positive”.

And the mutagenic call (Test System: AMES SALMONELLA TYPHIMURIUM, Strain/Indicator: TA98, Metabolic Activation: RAT, LIVER, S-9, AROCLOR 1254, Method: PREINCUBATION)?
The mutagenic call was “active; positive”.

And the mutagenic call (Test System: AMES SALMONELLA TYPHIMURIUM, Strain/Indicator: TA98, Metabolic Activation: RAT, LIVER, S-9, AROCLOR 1254, Method: SPIRAL ASSAY)?
Its mutagenic call is “active; positive”.

What about the mutagenic call (Test System: AMES SALMONELLA TYPHIMURIUM, Strain/Indicator: TA98, Metabolic Activation: RAT, LIVER, S-9, PHENOBARBITAL, Method: STANDARD PLATE) of the same compound?
The mutagenic call was “active; positive”.

And the mutagenic call (Test System: AMES SALMONELLA TYPHIMURIUM, Strain/Indicator: TA98, Metabolic Activation: RAT, LIVER, S-9, Method: PREINCUBATION)?
The mutagenic call was “active; positive”.

What about the mutagenic call (Test System: AMES SALMONELLA TYPHIMURIUM, Strain/Indicator: TA98, Metabolic Activation: RAT, LIVER, S-9, Method: STANDARD PLATE) of the same compound?
Its mutagenic call is “active; positive”.

What about the mutagenic call (Test System: AMES SALMONELLA TYPHIMURIUM, Strain/Indicator: TA100, Metabolic Activation: NONE, Method: SPIRAL ASSAY) of the same compound?
The mutagenic call was “inactive; negative”.

And the mutagenic call (Test System: AMES SALMONELLA TYPHIMURIUM, Strain/Indicator: TA100, Metabolic Activation: NONE, Method: STANDARD PLATE)?
Its mutagenic call is “inactive; negative”.

And the mutagenic call (Test System: AMES SALMONELLA TYPHIMURIUM, Strain/Indicator: TA100, Metabolic Activation: RAT, BLADDER, S-9, PCB, Method: FLUCTUATION TEST)?
Its mutagenic call is “inactive; negative”.

And the mutagenic call (Test System: AMES SALMONELLA TYPHIMURIUM, Strain/Indicator: TA100, Metabolic Activation: RAT, LIVER, S-9, ACRYLAMIDE, Method: STANDARD PLATE)?
Its mutagenic call is “active; positive”.

And the mutagenic call (Test System: AMES SALMONELLA TYPHIMURIUM, Strain/Indicator: TA100, Metabolic Activation: RAT, LIVER, S-9, AROCLOR 1254, Method: SPIRAL ASSAY)?
Its mutagenic call is “inactive; negative”.

What about the mutagenic call (Test System: AMES SALMONELLA TYPHIMURIUM, Strain/Indicator: TA100, Metabolic Activation: RAT, LIVER, S-9, KC500 OR PHENOBARBITAL, Method: LIQUID SUSPENSION) of the same compound?
Its mutagenic call is “active; positive”.

And the mutagenic call (Test System: AMES SALMONELLA TYPHIMURIUM, Strain/Indicator: TA100, Metabolic Activation: RAT, LIVER, S-9, PHENOBARBITAL, Method: STANDARD PLATE)?
Its mutagenic call is “active; positive”.

And the mutagenic call (Test System: AMES SALMONELLA TYPHIMURIUM, Strain/Indicator: TA1535, Metabolic Activation: NONE, Method: SPIRAL ASSAY)?
Its mutagenic call is “inactive; negative”.

And the mutagenic call (Test System: AMES SALMONELLA TYPHIMURIUM, Strain/Indicator: TA1535, Metabolic Activation: NONE, Method: STANDARD PLATE)?
Its mutagenic call is “inactive; negative”.

And the mutagenic call (Test System: AMES SALMONELLA TYPHIMURIUM, Strain/Indicator: TA1535, Metabolic Activation: RAT, LIVER, S-9, AROCLOR 1254, Method: SPIRAL ASSAY)?
Its mutagenic call is “inactive; negative”.

What about the mutagenic call (Test System: AMES SALMONELLA TYPHIMURIUM, Strain/Indicator: TA1535, Metabolic Activation: RAT, LIVER, S-9, AROCLOR 1254, Method: STANDARD PLATE) of the same compound?
The mutagenic call was “inactive; negative”.

And the mutagenic call (Test System: AMES SALMONELLA TYPHIMURIUM, Strain/Indicator: TA1537, Metabolic Activation: NONE, Method: SPIRAL ASSAY)?
The mutagenic call was “inactive; negative”.
